Measured values as given in paper PMC9811213, “Glutamine deamidation does not increase the immunogenicity of C-peptide in people with type 1 diabetes” (Journal of Translational Autoimmunity, 2022).

How the values were obtained:
[1] = tested on: CD4+ T cells in PBMC from subjects without T1D; experiment: CFSE-based proliferation assay, PBMC of subjects without T1D; assay type: cell-based, human; conditions: CFSE-labelled PBMC, peptide 10 μM, mean CDI
Protocol: (§1) Blood was obtained by venepuncture. Peripheral blood mononuclear cells (PBMC) were isolated over Ficoll-paque (GE Healthcare) and washed twice in phosphate buffered saline (PBS) as described. The CFSE (5,6-carboxyfluorescein diacetate succinimidyl ester) proliferation assays were performed as described previously. CFSE-labelled PBMC were cultured with either: no antigen, full-length C-peptide (^PI33-63), or ^PI33-63 Q38E (referred to as Q6E), ^PI33-63 Q41E (referred to as Q9E), ^PI33-63 Q54E, (referred to as Q22E) ^PI33-63 Q63E (referred to as Q31E), or ^PI33-63 with all glutamines substituted for glutamic acid, (referred to as QallE). See Supplementary Table 5 for a detailed description of the peptides. Each peptide was used at a final concentration of 10 μM. Positive controls were tetanus toxoid (TT 10LfU/ml, Statens Serum Institut) and/or anti-CD3 (OKT3 10 ng/ml). The results are presented as a cell division index (CDI), the ratio of the number of CD4^+ T cells that have proliferated in the presence of antigen to the number of CD4^+ T cells that have proliferated in the absence of antigen.
(§2) Our analysis of CD4^+ Jurkat lines expressing TCRs derived from primary CD4^+ T cells used TCRs derived from CD4^+ T cells that were selected for their specificity for WT C-peptide. […] This may be due to Q to E substitutions being poorly tolerated by the TCRs that were selected based on their recognition of WT C-peptide. To address this, we measured polyclonal CD4^+ T-cell responses in PBMC from people with recent onset type 1 diabetes. (see Supplementary Tables 5 and 6 for details of each subject). […] Next, in a separate cohort we investigated CD4^+ T-cell responses to the five C-peptide variants with individual Q to E substitutions in PBMC of people with recent onset type 1 diabetes (Fig. 3B). We found, as expected, that a majority of PBMC samples responded to WT C-peptide, but responses to Q to E substituted C-peptide variants were not stronger, in fact in most cases they were weaker, than responses to WT C-peptide. (See Supplementary Tables 7–9 for results from individual subjects). Finally, we asked if people without T1D, but who carried the T1D-associated HLA alleles, HLA-DQ2, or HLA-DQ8 had stronger responses to Q to E substituted C-peptide variants (Fig. 3C). Here few subjects had response to WT C-peptide and only a minority had greater responses to Q to E substituted variants of C-peptide, compared to WT C-peptide.
(§3) Fig. 3 PBMC responses to WT and deamidated C-peptide variants. (A) Proliferation in responses, measured as a cell division index (CDI) to WT or QallE C-peptide were compared in 8 PBMC from 8 people with recent onset T1D. Responses from the same individual are linked. […] (B) PBMC proliferation responses to WT and C-peptide variants with individual Q to E substitution and QallE from people with recent onset T1D (B) and HLA matched control subjects who don't have T1D (C). Only difference which reached statistical significance are marked (* = P < 0.05). For responses in subjects without T1D, none of the differences between groups reached statistical significance, p > 0.05, by Wilcoxon matched pairs signed rank test of Log 10 transformed CDI data. Each point is a different individual, bars show the mean and the standard deviation for each group.

[2] = tested on: CD4+ T cells in PBMC from people with recent onset T1D; experiment: CFSE-based proliferation assay, PBMC of people with T1D; assay type: cell-based, human; conditions: CFSE-labelled PBMC, peptide 10 μM, mean CDI
Protocol: as §1, §2, §3

| Sequence | Cell division index (CDI) ([1]; donor 1 without T1D) | Cell division index (CDI) ([1]; donor 2 without T1D) | Cell division index (CDI) ([1]; donor 3 without T1D) | Cell division index (CDI) ([1]; donor 4 without T1D) | Cell division index (CDI) ([1]; donor 5 without T1D) | Cell division index (CDI) ([1]; donor 6 without T1D) | Cell division index (CDI) ([2]; T1D donor 9) | Cell division index (CDI) ([2]; T1D donor 10) | Cell division index (CDI) ([2]; T1D donor 11) | Cell division index (CDI) ([2]; T1D donor 12) | Cell division index (CDI) ([2]; T1D donor 13) | Cell division index (CDI) ([2]; T1D donor 14) | Cell division index (CDI) ([2]; T1D donor 15) | Cell division index (CDI) ([2]; T1D donor 16) | Cell division index (CDI) ([2]; T1D donor 17) | Cell division index (CDI) ([2]; T1D donor 18) |
| --- | --- | --- | --- | --- | --- | --- | --- | --- | --- | --- | --- | --- | --- | --- | --- | --- |
| EAEDLEVGQVELGGGPGAGSLQPLALEGSLQ [Q6E, C-peptide variant with glutamine 6 substituted for glutamic acid] | 1.0 | 2.6 | 2.1 | 0.8 | 62.1 | 5.5 | 1.0 | 2.9 | 0.9 | 3.4 | 1.4 | 1.0 | 3.6 | 2.4 | 8.5 | 0.0 |
| EAEDLQVGQVELGGGPGAGSLEPLALEGSLQ [Q22E, C-peptide variant with glutamine 22 substituted for glutamic acid] | 1.3 | 1.1 | 0.9 | 1.7 | 1.8 | 2.4 | 2.1 | 2.3 | 0.8 | 36.3 | 54.8 | 2.6 | 8.9 | 3.2 | 1.5 | 2.4 |
